Assay results taken from publication PMC3117668 (ACS medicinal chemistry letters, 2011).
Converted amounts (≈) assume the structure as drawn.

Key:
[1] = test system: H37Rv TB; experiment: Whole cell MIC against H37Rv; format: cell-based; conditions: Mycobacterium tuberculosis
[2] = test system: H37Rv-TB; experiment: MIC re-screen in the presence of 4% BSA and 10% FBS; format: cell-based, Mycobacterium tuberculosis; conditions: ATP and MABA readouts
[3] = test system: M. bovis BCG; experiment: microbe, parasite or virus in culture; format: cell-based; conditions: Mycobacterium tuberculosis variant bovis BCG, read-out: MIC90 M. bovis BCG

| SMILES | MIC [1] | MIC shift [2] | further results |
| --- | --- | --- | --- |
| CCOC(=O)c1c(C)nc2cc(C)ccn12 [ethyl 2,7-dimethylimidazo[1,2-a]pyridine-3-carboxylate] | ~65 µM (≈ 14.2 µg/mL) | – | – |
| Cc1ccn2c(C(=O)NCc3ccccc3)c(C)nc2c1 [Compound 1] | – | less than two fold | – |
| Cc1ccn2c(C(=O)NCc3cccc(F)c3)c(C)nc2c1 [Compound 8] | ~0.3 µM (≈ 0.0892 µg/mL) | – | – |
| COc1cccc(CNC(=O)c2c(C)nc3ncc(C)cn23)c1 [Compound 10] | – | less than two fold | – |
| CO[C@H]1/C=C/O[C@@]2(C)Oc3c(C)c(O)c4c(O)c(c(/C=N/N5CCN(C)CC5)c(O)c4c3C2=O)NC(=O)/C(C)=C\C=C\[C@H](C)[C@H](O)[C@@H](C)[C@@H](O)[C@@H](C)[C@H](OC(C)=O)[C@@H]1C [RMP, Rifampicin] | – | – | MIC90 [3]: < 0.78 µM |
| Cc1ccn2c(C(=O)NCc3ccc(Cl)c(Cl)c3)c(C)nc2c1 [Compound 7] | 9 to 14 µM (≈ 3.13 to 4.88 µg/mL) | – | – |
